Where “and” joins values, the source holds several entries; their conditions need not be identical. Identical values can stand only once. Like-named read-outs stand apart in the source and are kept apart here. Square brackets hold non-standard residues; d marks the D form. Peptide text beside a SMILES is read from it. * marks the point of attachment. AMC = Cc1cc(=O)oc2cc(N*)ccc12; Nle = CCCC[C@H](N)C(=O)O; Bz = O=C(c1ccccc1)*
How the values were obtained:
N2B-NS3 protease of WNV = details: cited from earlier work
[1] = system: NS2B/NS3 protease of DEN2; details: cited from earlier work
JEV NS2B(H)-NS3pro [2] = molecular target: T1, JEV NS2B(H)-NS3pro (Japanese encephalitis virus, UniProt P32886, DEL1469-1493); experiment: Enzymatic activity assay with fluorogenic peptide substrates (Michaelis-Menten kinetics); type: biochemical; details: JEV protease
T1 construct: PCR-amplify the NS2B(H) region (amino acids 51–95 and 121–131); The N-terminal one-third (180 residues) of NS3 represents the protease domain NS3(pro); made in house; host or cells: E. coli (the text names both C41 and BL21), vector pTrcHisA

[3] = system: dengue virus NS3 protease; details: 100 mM NaCl; cited from earlier work
JEV NS2B(H)-NS3pro [4] = details: 25 mM NaCl; 100 µM Pyr-RTKR-amc, 0.5 µM enzyme, 50 mM Tris-HCl pH 9.5, 37°C
NS2B/NS3 protease of YFV = details: cited from earlier work
JEV NS2B(H)-NS3pro [5] = experiment: Enzyme inhibition by aprotinin, Pyr-RTKR-amc substrate; type: biochemical, Japanese encephalitis virus; details: 0.5 µM enzyme, 50 mM Tris-HCl pH 9.5, 20% glycerol, aprotinin 0-20 µM, 37°C 30 minutes pre-incubation, 10 µM Pyr-RTKR-amc, triplicate
DEN2 NS3 protease = details: cited from earlier work
WNV NS3 protease = details: cited from earlier work
MVEV NS2B-NS3 = details: cited from earlier work

Pyr-RTKR-amc
K m (N2B-NS3 protease of WNV): 71 µM | k cat (N2B-NS3 protease of WNV): 6.3 s⁻¹ | k cat/K m (N2B-NS3 protease of WNV): 88000 M⁻¹ s⁻¹ | k cat [1]: 0.02 s⁻¹ and 0.013 s⁻¹

CCCC[C@H](NC(=O)c1ccccc1)C(=O)N[C@@H](CCCCN)C(=O)N[C@@H](CCCNC(=N)N)C(=O)N[C@@H](CCCNC(=N)N)C(=O)Nc1ccc2c(C)cc(=O)oc2c1 [Bz-nKRR-amc] (Bz-[Nle]KRR-{AMC})
fold higher k cat/K m of benzoyl compared to acetyl group (Ac-nKRR-amc) (JEV NS2B(H)-NS3pro [2]): approximately 1.4 fold

[Cl-].[Na+] [NaCl]
inhibition of the dengue virus NS3 protease [3]: 40–50% | inhibition of cleavage of Pyr-RTKR-amc (JEV NS2B(H)-NS3pro [4]): about 50%

Abz-(R)4SAGnY-amide
k cat/K m [1]: 11087 M⁻¹ s⁻¹

Cc1cc(=O)oc2cc(NC(=O)[C@H](CCCNC(=N)N)NC(=O)[C@H](CCCNC(=N)N)NC(=O)CNC(=O)OC(C)(C)C)ccc12 [Boc-GRR-amc]
fold higher K m than Boc-LRR-amc (JEV NS2B(H)-NS3pro [2]): 3 fold | fold higher catalytic efficiency than Boc-LRR-amc (JEV NS2B(H)-NS3pro [2]): about 10 fold | K m (NS2B/NS3 protease of YFV): 142 µM | k cat (NS2B/NS3 protease of YFV): 0.034 s⁻¹ | K m [1]: 150 µM | k cat [1]: 0.13 s⁻¹

aprotinin
IC50 (JEV NS2B(H)-NS3pro [5]): 4130 ± 170 nM | Ki (DEN2 NS3 protease): 26 nM | Ki (WNV NS3 protease; WNV NS3 protease): 162 nM | Ki (WNV NS3 protease; non-cleavable form of WNV NS2B-NS3pro): 26 nM | IC50 (MVEV NS2B-NS3): ~8000 nM and 7800 nM
